Source: patent publication US20050197371A1, “Urea derivatives as PDGFR modulators” (Ambit Biosciences Corporation, priority 2003, published 2005)

Biological target: T1, PDGFRB(DKIN) (PDGFR-β) (Homo sapiens, UniProt P09619)
T1 construct: PDGFRB(DKIN)
Assay: Phage-display competitive binding assay, PDGFRB(DKIN)
Conditions: T7 phage displaying human PDGFR-β, DKIN construct; read-out: Binding Assay: PDGFRB(DKIN)
Method: The term “ND” represents non-determined values.
Briefly, T7 phage displaying human PDGFR-β were incubated with an affinity matrix coated with known PDGFR-β inhibitor in the presence of various concentrations of the soluble competitor molecules.

SMILES | Kd [µM]
CC(C)(C)c1cc(NC(=O)Nc2ccc(NC(=O)c3cnnc4ccccc34)cc2)no1 [Compound N147] | < 0.1
CC(C)(C)c1cc(NC(=O)Nc2ccc(NC(=O)c3nccc4ccccc34)cc2)no1 [Compound N117] | < 0.1
C=N/C(=N\C)Oc1cccc(C(=O)Nc2ccc(NC(=O)Nc3cc(C(C)(C)C)on3)cc2)c1 [Compound N74] | < 0.1
COC(=O)c1cccc(Sc2ncc(NC(=O)Nc3cc(C(C)(C)C)on3)s2)c1 [Compound O8] | 0.1 to 1
CC1CN(CCOc2ccc(NC(=O)Nc3cc(C(C)(C)C)on3)cc2)CCN1 (stereo not shown) [Compound G46] | 1 to 10
CC(C)(C)c1cc(NC(=O)Nc2ccc(NC(=O)c3cnc(Cl)c(Cl)c3)cc2)no1 [Compound N123] | 1 to 10
Cc1ccc(-n2nc(C(C)(C)C)cc2NC(=O)Nc2ccc(Cl)cc2)cc1 [Compound H14] | 0.1 to 1
CC(C)(C)c1cc(NC(=O)Nc2ccc(OCCc3ccncc3)cc2)no1 [Compound G22] | < 0.1
CCc1ccc(C(=O)Nc2ccc(NC(=O)Nc3cc(C(C)(C)C)on3)cc2)cc1 [Compound N32] | < 0.1
CC(C)(C)c1cc(NC(=O)Nc2ccc(NC(=O)c3ccc(Oc4ccnc(C(=O)O)c4)cc3)cc2)no1 [Compound N166] | < 0.1
CC1CN(CCOc2ccc(NC(=O)Nc3cc(C(C)(C)C)on3)cc2)CC(C)O1 (stereo not shown) [Compound G42] | 0.1 to 1
COc1ccc(N(C)C(=O)N(C)c2cc(C(C)(C)C)no2)cc1 [Compound J8] | > 10
CC(C)(C)c1cc(NC(=O)Nc2ccc(NC(=O)c3cn4cc(Cl)ccc4n3)cc2)no1 [Compound N3] | < 0.1
CC(C)(C)c1cc(NC(=O)Nc2ccc(NC(=O)Cc3csc4ccccc34)cc2)no1 [Compound N107] | 1 to 10
Cc1ccc(-n2nc(C(C)(C)C)cc2NC(=O)Nc2cc(C(C)(C)C)on2)cc1 [Compound H11] | 1 to 10
Cc1nc(C(=O)Nc2ccc(NC(=O)Nc3cc(C(C)(C)C)on3)cc2)nn1-c1cc(Cl)cc(Cl)c1 [Compound N15] | 0.1 to 1
CNC(=O)c1ccc(NC(=O)Nc2cc(C(C)(C)C)on2)cc1 [Compound N85] | 0.1 to 1
CC(C)(C)c1cc(NC(=O)Nc2ccc(NC(=O)c3cc(Cl)cn(Cc4ccccc4)c3=O)cc2)no1 [Compound N112] | 0.1 to 1
Cc1nc(-c2ccc(C(=O)Nc3ccc(NC(=O)Nc4cc(C(C)(C)C)on4)cc3)s2)cs1 [Compound N173] | < 0.1
CC(C)(C)c1cc(NC(=O)Nc2ccc3cc4ccccc4cc3c2)no1 [Compound A18] | 1 to 10
O=C(Nc1ccccc1)Nc1ccc(-n2cnc(Cl)c2Cl)cc1 [Compound Z65] | 0.1 to 1
CC(C)(C)c1cc(NC(=O)Nc2ccc(NC(=O)CC(N)c3ccccc3Cl)cc2)no1 (stereo not shown) [Compound N44] | 1 to 10
Cc1cc(NC(=O)c2cn3nc(Cl)ccc3n2)ccc1NC(=O)Nc1cc(C(C)(C)C)on1 [Compound N169] | 0.1 to 1
CC(C)(C)c1cc(NC(=O)Nc2ccc(NC(=O)c3ccccc3)cc2)no1 [Compound N34] | < 0.1
CC(C)(C)c1cc(NC(=O)Nc2ccc(NC(=O)c3cccc(Cl)n3)cc2)no1 [Compound N4] | < 0.1
CC(C)(C)c1cc(N2CCCN(c3ccc(OCc4ccccc4)cc3)C2=O)on1 [Compound E2] | 0.1 to 1
CC(C)(C)c1cc(NC(=O)Nc2ccc(S(=O)(=O)Nc3ncccn3)cc2)no1 [Compound V3] | > 10

SMILES | Kd [µM]
CSc1ccc(NC(=O)Nc2cc(C(C)(C)C)no2)cc1 [Compound A39] | 0.1 to 1
CC(C)(C)c1cc(NC(=O)Nc2ccc(OCc3c(Cl)cccc3Cl)cc2)no1 [Compound G19] | 0.1 to 1
O=C(Nc1ccc(Cl)cc1)Nc1ccno1 [Compound Z15] | 1 to 10
CC(C)(C)c1cc(NC(=O)Nc2ccc(NC(=O)c3c4ccccc4nc4ccccc34)cc2)no1 [Compound N148] | 1 to 10
COc1cc(OC)nc(Oc2ccccc2C(=O)Nc2ccc(NC(=O)Nc3cc(C(C)(C)C)on3)cc2)n1 [Compound N70] | 1 to 10
COc1cccc(CNC(=O)Nc2cc(C(C)(C)C)on2)c1 [Compound B3] | 0.1 to 1
CC(C)(C)c1cc(NC(=O)Nc2ccc(OCc3c(F)cccc3F)cc2)no1 [Compound G21] | < 0.1
CC(C)(C)c1cc(NC(=O)Nc2ccc(Cl)cc2Cl)no1 [Compound A7] | 1 to 10
Cn1nc(C(C)(C)C)cc1NC(=O)Nc1ccc(OCc2ccccc2)cc1 [Compound H2] | 0.1 to 1
CC(C)(C)c1cc(NC(=O)Nc2ccc(NC(=O)C3=NCC=N3)cc2)no1 [Compound N13] | < 0.1
CC1CCCN(CCOc2ccc(NC(=O)Nc3cc(C(C)(C)C)on3)cc2)C1 (stereo not shown) [Compound G44] | > 10
Cc1ccc(COc2ccc(NC(=O)Nc3cc(C(C)(C)C)on3)cc2)cc1 [Compound G15] | < 0.1
CC(C)(C)c1cc(NC(=O)Nc2ccc(NC(=O)Cc3ccc(OCc4ccccc4)cc3)cc2)no1 [Compound N98] | > 10
CC(C)(C)c1cc(NC(=O)Nc2ccc(Oc3ccccc3)cc2)no1 [Compound A24] | 0.1 to 1
Cc1[nH]c(C(=O)Nc2ccc(NC(=O)Nc3cc(C(C)(C)C)on3)cc2)c(C)c1CCC(=O)O [Compound N39] | < 0.1
CC(C)(C)c1cc(NC(=O)Nc2ccc(NC(=O)c3nnsc3Sc3ccc(C(F)(F)F)cc3)cc2)no1 [Compound N179] | 0.1 to 1
CC(C)(C)c1cc(NC(=O)Nc2ccc(OCc3cccc(F)c3)cc2)no1 [Compound G14] | < 0.1
CC(C)(C)c1cc(NC(=O)Nc2ccc(Nc3nc(N)nc4[nH]cnc34)cc2)no1 [Compound O6] | < 0.1
CC(C)(C)c1cc(NC(=O)Nc2ccc(OCC3CCC3)cc2)no1 [Compound G39] | < 0.1
C[S+]([O-])c1ccc(NC(=O)Nc2cc(C(C)(C)C)on2)cc1 (stereo not shown) [Compound A46] | 0.1 to 1
COc1ccc(NC(=O)Nc2cc(C(C)(C)C)on2)cc1OC [Compound A55] | 1 to 10
C/C=C/C(=O)Nc1ccc(NC(=O)Nc2cc(C(C)(C)C)on2)cc1 [Compound N93] | 1 to 10
Cn1nc(-c2ccccc2)c2cc(C(=O)Nc3ccc(NC(=O)Nc4cc(C(C)(C)C)[nH]n4)cc3)[nH]c21 [Compound N5] | 0.1 to 1
CC(C)c1ccc(NC(=O)Nc2cc(C(C)(C)C)no2)cc1 [Compound A11] | 0.1 to 1
CC(C)(C)c1cc(NC(=O)Nc2ccc(NC(=O)c3c[nH]c(=O)nc3-c3ccncc3)cc2)no1 [Compound N19] | 1 to 10
CC(C)(C)c1cc(NC(=O)Nc2ccc(OCc3ccccc3)cc2)on1 [Compound G30] | < 0.1
Cn1cc(C(=O)Nc2ccc(NC(=O)Nc3cc(C(C)(C)C)on3)cc2)c2ccccc21 [Compound N119] | < 0.1

SMILES | Kd [µM]
COc1ccc(NC(=O)Nc2cc(C(F)(F)F)cc(Cl)n2)cc1 [Compound Z71] | 0.1 to 1
COc1cc(OC)nc(C2CCCCC2C(=O)Nc2ccc(NC(=O)Nc3cc(C(C)(C)C)on3)cc2)n1 (stereo not shown) [Compound N129] | 0.1 to 1
CC(C)(C)c1cc(NC(=O)Nc2ccc(NC(=O)c3cc4cc(Br)ccc4s3)cc2)no1 [Compound N126] | 0.1 to 1
Cc1noc(-c2ccc(NC(=O)Nc3cc(C(C)(C)C)on3)cc2)n1 [Compound P9] | < 0.1
CC(C)(C)c1cc(NC(=O)Nc2ccc(OCc3ccc(C(F)(F)F)cc3)cc2)no1 [Compound G6] | < 0.1
Cc1ccc2sc(C(=O)Nc3ccc(NC(=O)Nc4cc(C(C)(C)C)on4)cc3)cc2c1 [Compound N133] | < 0.1
Cc1cnc(C(=O)Nc2ccc(NC(=O)Nc3cc(C(C)(C)C)on3)cc2)cn1 [Compound O2] | < 0.1
COC(=O)c1cccc(COc2ccc(NC(=O)Nc3cc(C(C)(C)C)on3)cc2)c1 [Compound G7] | < 0.1
CC(C)(C)c1cc(NC(=O)Nc2ccc(NC(=O)Cc3oc(-c4ccc(Cl)cc4)nc3-c3ccccc3)cc2)no1 [Compound N66] | 0.1 to 1
CC(C)(C)c1cc(NC(=O)Nc2ccc(NC(=O)c3nocc3C(C)(C)C)cc2)no1 [Compound N82] | 0.1 to 1
CC(C)(C)c1cc(NC(=O)Nc2ccc(N3C(=O)c4ccccc4C3=O)cc2)no1 [Compound A57] | < 0.1
CC(C)(C)c1cc(NC(=O)Nc2ccc(C(N)=O)cc2)no1 [Compound N86] | 0.1 to 1
CC(C)CCOC(=O)c1nnsc1NC(=O)Nc1ccc(Br)cc1 [Compound Z36] | > 10
CC(C)(C)c1cc(NC(=O)Nc2ccc(OCCN3CCC(O)CC3)cc2)no1 [Compound G48] | 1 to 10
CC(=O)Oc1cccnc1C(=O)Nc1ccc(NC(=O)Nc2cc(C(C)(C)C)on2)cc1 [Compound N79] | < 0.1
COc1ccc(-c2noc(-c3ccc(NC(=O)Nc4cc(C(C)(C)C)on4)cc3)n2)c2ccccc12 [Compound P3] | 1 to 10
COc1nc(C)cc(C)c1C(=O)Nc1ccc(NC(=O)Nc2cc(C(C)(C)C)on2)cc1 [Compound N22] | 0.1 to 1
CC(C)c1cc(NC(=O)Nc2ccc(NC(=O)C3CCN(c4ncc(C(F)(F)F)cc4Cl)CC3)cc2)no1 [Compound N59] | 0.1 to 1
CC(C)(C)c1cc(NC(=O)Nc2ccc(C(=O)O)cc2)no1 [Compound C2] | > 10
COc1cc2nc(Cl)nc(Nc3ccc(NC(=O)Nc4cc(C(C)(C)C)on4)cc3)c2cc1OC [Compound O1, 1-(4-(2-chloro-6,7-dimethoxyquinazolin-4-ylamino)phenyl)-3-(5-tert-butylisoxazol-3-yl)urea] | 0.1 to 1
CCN(CC)CCNC(=O)c1ccc(NC(=O)Nc2cc(C(C)(C)C)on2)cc1 [Compound N102] | > 10
CC(C)(C)c1cc(NC(=O)Nc2ccc(NC(=O)c3cnc4cc(C(F)(F)F)ccc4c3O)cc2)no1 [Compound N146] | 1 to 10
Cn1cc(C(=O)Nc2ccc(NC(=O)Nc3cc(C(C)(C)C)on3)cc2)c(C(F)(F)F)n1 [Compound N20] | 0.1 to 1
Cn1nc(C(F)(F)F)c(C(=O)Nc2ccc(NC(=O)Nc3cc(C(C)(C)C)on3)cc2)c1Cl [Compound N68] | 0.1 to 1
C=C/C(=C\C=C\Cl)NC(=O)Nc1ccc(C(=O)OCCOC)cc1 [Compound Z54] | 1 to 10
